7 cell lines from the supplement of paper PMC10307832 can be followed below.

Assay in all cases: relative viability (nuclei count vs DMSO), 5 days (fraction); higher = more cells survive
Compound in test [1]: C1COCCN1C2=NC(=NC3=C2OC4=C3C=CC=N4)C5=CC(=CC=C5)NC(=O)C6=CN=C(C=C6)N + Cc1cc(Nc2cc(N3CCN(C)CC3)nc(Sc3ccc(NC(=O)C4CC4)cc3)n2)n[nH]1 [Tozasertib] (partner 0.1 µM)
Summed up:
(§1)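 Five library-drug doses in √10 steps were combined with a fixed anchor-drug dose, or a single drug was given alone, by pin tool to lung cancer cell lines in 1536-well plates the day after seeding. Nuclei were stained and counted after 5 days. Relative viability is the nuclei count in treated wells over that in vehicle wells, taken as the median of duplicate plates.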

Compound in test [2]: C1COCCN1C2=NC(=NC3=C2OC4=C3C=CC=N4)C5=CC(=CC=C5)NC(=O)C6=CN=C(C=C6)N + O=C(CCCCCCC(=O)Nc1ccccc1)NO [Vorinostat] (partner 1 µM)
The method, boiled down:
as §1

Compound in the test “SGI-1776 + Linsitinib”: CN1CCC(CNc2ccc3ncc(-c4cccc(OC(F)(F)F)c4)n3n2)CC1 [SGI-1776] + C[C@]1(O)C[C@@H](c2nc(-c3ccc4ccc(-c5ccccc5)nc4c3)c3c(N)nccn32)C1 [Linsitinib] (partner 1 µM)
The method, boiled down:
as §1

Compound in the test “Entinostat + Phenformin”: Nc1ccccc1NC(=O)c1ccc(CNC(=O)OCc2cccnc2)cc1 [Entinostat] + N=C(N)NC(=N)NCCc1ccccc1 [Phenformin] (partner 250 µM)
The method, boiled down: as §1

Turning to NCI-H650, the relative viability was found to be 0.769 in test [1] (first compound 0.02 µM); 0.766 in test [1] (first compound 0.06325 µM); 0.737 in test [1] (first compound 0.2 µM); 0.799 in test [1] (first compound 0.6325 µM); 0.513 in test [1] (first compound 2 µM); 0.495 in test [2] (first compound 0.02 µM). Also, the relative viability in test [2] (first compound 0.06325 µM) was 0.412; in test [2] (first compound 0.2 µM), 0.474; in test [2] (first compound 0.6325 µM), 0.515; in test [2] (first compound 2 µM) it was 0.392; with SGI-1776 + Linsitinib (first compound 0.08 µM), 1.07; with SGI-1776 + Linsitinib (first compound 0.8 µM), 0.952. Further, the relative viability in the test with SGI-1776 + Linsitinib (first compound 2.53 µM) amounted to 0.686; in the test with SGI-1776 + Linsitinib (first compound 8 µM), 0.727; with Entinostat + Phenformin (first compound 0.02 µM), 0.491; with Entinostat + Phenformin (first compound 0.06325 µM), 0.466; with Entinostat + Phenformin (first compound 0.2 µM), 0.431; with Entinostat + Phenformin (first compound 0.6325 µM), 0.455. In addition, the relative viability with Entinostat + Phenformin (first compound 2 µM) was found to be 0.318.

As to NCI-H661, the relative viability was determined as 0.34 in test [1] (first compound 0.02 µM); 0.347 in test [1] (first compound 0.06325 µM); 0.328 in test [1] (first compound 0.2 µM); 0.342 in test [1] (first compound 0.6325 µM); 0.354 in test [1] (first compound 2 µM); 0.766 in test [2] (first compound 0.02 µM). Moreover, the relative viability in test [2] (first compound 0.06325 µM) stood at 0.803; in test [2] (first compound 0.2 µM), 0.769; in test [2] (first compound 0.6325 µM), 0.806; in test [2] (first compound 2 µM) it was 0.529; in the test with SGI-1776 + Linsitinib (first compound 0.08 µM), 0.74; in the test with SGI-1776 + Linsitinib (first compound 0.8 µM), 0.643. The relative viability with SGI-1776 + Linsitinib (first compound 2.53 µM) amounted to 0.545; with SGI-1776 + Linsitinib (first compound 8 µM), 0.502; in the test with Entinostat + Phenformin (first compound 0.02 µM) it was 0.281; in the test with Entinostat + Phenformin (first compound 0.06325 µM), 0.266; with Entinostat + Phenformin (first compound 0.2 µM), 0.303; in the test with Entinostat + Phenformin (first compound 0.6325 µM), 0.269. In addition, in the test with Entinostat + Phenformin (first compound 2 µM), the relative viability worked out at 0.192.

For NCI-H727, the relative viability in test [1] (first compound 0.02 µM) worked out at 0.668; in test [1] (first compound 0.06325 µM) it was 0.839; in test [1] (first compound 0.2 µM), 0.599; in test [1] (first compound 0.6325 µM) it was 0.467; in test [1] (first compound 2 µM), 0.524; in test [2] (first compound 0.02 µM), 1.14. In addition, the relative viability in test [2] (first compound 0.06325 µM) came out at 1.22; in test [2] (first compound 0.2 µM), 1.05; in test [2] (first compound 0.6325 µM) it was 1.22; in test [2] (first compound 2 µM), 1.12; with SGI-1776 + Linsitinib (first compound 0.08 µM), 0.254; with SGI-1776 + Linsitinib (first compound 0.8 µM), 0.26. The relative viability in the test with SGI-1776 + Linsitinib (first compound 2.53 µM) was 0.346; with SGI-1776 + Linsitinib (first compound 8 µM), 0.241; with Entinostat + Phenformin (first compound 0.02 µM), 0.457; with Entinostat + Phenformin (first compound 0.06325 µM), 0.689; with Entinostat + Phenformin (first compound 0.2 µM), 0.581; with Entinostat + Phenformin (first compound 0.6325 µM), 0.436. Also, the relative viability with Entinostat + Phenformin (first compound 2 µM) was found to be 0.43.

On to NCI-H838, for which the relative viability in test [1] (first compound 0.02 µM) was 0.278; in test [1] (first compound 0.06325 µM), 0.278; in test [1] (first compound 0.2 µM), 0.256; in test [1] (first compound 0.6325 µM) it was 0.257; in test [1] (first compound 2 µM), 0.182; in test [2] (first compound 0.02 µM), 0.725. For the same cell line, the relative viability in test [2] (first compound 0.06325 µM) was 0.754; in test [2] (first compound 0.2 µM), 0.676; in test [2] (first compound 0.6325 µM), 0.646; in test [2] (first compound 2 µM), 0.5; with SGI-1776 + Linsitinib (first compound 0.08 µM), 1.03; with SGI-1776 + Linsitinib (first compound 0.8 µM), 0.982. Besides, the relative viability turned out to be 1.02 with SGI-1776 + Linsitinib (first compound 2.53 µM); 0.684 with SGI-1776 + Linsitinib (first compound 8 µM); 0.706 with Entinostat + Phenformin (first compound 0.02 µM); 0.852 in the test with Entinostat + Phenformin (first compound 0.06325 µM); 0.677 with Entinostat + Phenformin (first compound 0.2 µM); 0.426 with Entinostat + Phenformin (first compound 0.6325 µM). In addition, the relative viability in the test with Entinostat + Phenformin (first compound 2 µM) stood at 0.198.

On to NCI-H1355, for which the relative viability in test [1] (first compound 0.02 µM) worked out at 0.628; in test [1] (first compound 0.06325 µM), 0.602; in test [1] (first compound 0.2 µM) it was 0.515; in test [1] (first compound 0.6325 µM), 0.36; in test [1] (first compound 2 µM), 0.352; in test [2] (first compound 0.02 µM) it was 0.695. The relative viability worked out at 0.737 in test [2] (first compound 0.06325 µM); 0.614 in test [2] (first compound 0.2 µM); 0.598 in test [2] (first compound 0.6325 µM); 0.538 in test [2] (first compound 2 µM); 0.92 in the test with SGI-1776 + Linsitinib (first compound 0.08 µM); 0.899 with SGI-1776 + Linsitinib (first compound 0.8 µM). The relative viability with SGI-1776 + Linsitinib (first compound 2.53 µM) turned out to be 0.792; in the test with SGI-1776 + Linsitinib (first compound 8 µM) it was 0.729; with Entinostat + Phenformin (first compound 0.02 µM) it was 0.48; with Entinostat + Phenformin (first compound 0.06325 µM), 0.439; with Entinostat + Phenformin (first compound 0.2 µM) it was 0.502; in the test with Entinostat + Phenformin (first compound 0.6325 µM), 0.368. In addition, in the test with Entinostat + Phenformin (first compound 2 µM), the relative viability is 0.332.

As for NCI-H1395, the relative viability was determined as 0.78 in test [1] (first compound 0.02 µM); 0.709 in test [1] (first compound 0.06325 µM); 0.772 in test [1] (first compound 0.2 µM); 0.719 in test [1] (first compound 0.6325 µM); 0.576 in test [1] (first compound 2 µM); 0.66 in test [2] (first compound 0.02 µM). The relative viability in test [2] (first compound 0.06325 µM) turned out to be 0.727; in test [2] (first compound 0.2 µM), 0.542; in test [2] (first compound 0.6325 µM), 0.637; in test [2] (first compound 2 µM), 0.595; with SGI-1776 + Linsitinib (first compound 0.08 µM) it was 1.19; in the test with SGI-1776 + Linsitinib (first compound 0.8 µM), 1.08. Also, the relative viability amounted to 0.938 with SGI-1776 + Linsitinib (first compound 2.53 µM); 0.746 with SGI-1776 + Linsitinib (first compound 8 µM); 0.441 in the test with Entinostat + Phenformin (first compound 0.02 µM); 0.494 with Entinostat + Phenformin (first compound 0.06325 µM); 0.421 with Entinostat + Phenformin (first compound 0.2 µM); 0.417 with Entinostat + Phenformin (first compound 0.6325 µM). The relative viability with Entinostat + Phenformin (first compound 2 µM) came to 0.416.

With NCI-H1437, the relative viability in test [1] (first compound 0.02 µM) is 0.437; in test [1] (first compound 0.06325 µM), 0.424; in test [1] (first compound 0.2 µM), 0.398; in test [1] (first compound 0.6325 µM), 0.377; in test [1] (first compound 2 µM), 0.241; in test [2] (first compound 0.02 µM), 0.82. Further, the relative viability in test [2] (first compound 0.06325 µM) was found to be 0.919; in test [2] (first compound 0.2 µM) it was 0.818; in test [2] (first compound 0.6325 µM), 0.816; in test [2] (first compound 2 µM), 0.432; with SGI-1776 + Linsitinib (first compound 0.08 µM), 1.03; in the test with SGI-1776 + Linsitinib (first compound 0.8 µM) it was 1.03. In addition, the relative viability with SGI-1776 + Linsitinib (first compound 2.53 µM) turned out to be 0.952; with SGI-1776 + Linsitinib (first compound 8 µM), 0.452; with Entinostat + Phenformin (first compound 0.02 µM) it was 0.288; with Entinostat + Phenformin (first compound 0.06325 µM) it was 0.261; with Entinostat + Phenformin (first compound 0.2 µM) it was 0.199; in the test with Entinostat + Phenformin (first compound 0.6325 µM), 0.197. Besides, the relative viability with Entinostat + Phenformin (first compound 2 µM) was 0.215.
